Where no end group is shown, it is not given here.
Tests used:
[1] = system: human-derived MSCs (hMSCs); assay: In vivo migration of ICG-labeled hMSCs to injected Cx-HA hydrogel containing SP or SP1 (NIR fluorescence imaging); set-up: species or system nude mouse; conditions: for fluorescence (recruited hMSC) at injected site: NIR-labeled Cx-HA hydrogel with 1 μg/mL peptide injected in one side of nude mouse, hMSCs via caudal vein, control Cx-HA no fluorescence
Protocol: Each of the NIR-HA-TET and NIR-HA-TCO, which were prepared in Example 3-1, was dissolved in 2% physiological saline to have a volume of 20 mg/mL, thereby preparing an aqueous solution, and 1 μg/mL of SP having an amino acid sequence of SEQ ID NO: 1 or SP1 having an amino acid sequence of SEQ ID NO: 2 was added to each solution. After 1-hour stirring, a hyaluronic acid hydrogel solution containing a stem cell recruiting factor was obtained by mixing the mixed solution prepared by stirring each of the solutions using a dual syringe.
NIR-labeled Cx-HA was injected into one side of a nude mouse, and NIR-labeled Cx-HA containing a stem cell recruiting factor was injected into the other side thereof, as shown in Table 3.
To visually confirm the extent of stem cell recruiting of SP1 in the present invention, hMCSs were labeled with indocyanine green and injected into a mouse caudal vein.
First, an indocyanine green (ICG) solution was prepared by dissolving 2 mg of ICG in 200 μL of DMSO, and mixing the resulting solution with 800 μL of a culture medium (DMEM (low-glucose)+10% FBS+1% penicillin-streptomycin). 10 μL of a 10 mg/mL protamine solution, 600 μL of the ICG solution and 600 μL of MEM-α were mixed, and gently stirred for 5 minutes. Afterward, the medium was removed from the flask in which hMSCs were cultured, replaced with 10 mL of a serum-free DMEM (low-glucose) medium, and then incubated for 1 hour at 37° C. under a 5% CO2 condition by adding a protamine/ICG solution.
Subsequently, the medium was removed, and the cells were washed with 10 mL PBS and treated with trypsin, thereby obtaining hMSCs. The hMSCs were prepared to be 1×10^6 cells/100 μL, and […] was injected into the caudal veins of nude mice using a […] syringe (FIG. 3). NIR fluorescence imaging was performed at a predetermined time using FOBI (NeoScience, Suwon, Korea) at 730 nm under conditions of an exposure of 2000 ms and a gain of 5.
To confirm the extent of promotion of in vivo hMSC migration by SP1 in the present invention, the hMSC-injected nude mice prepared in Example 4 were subjected to NIR fluorescence imaging using FOBI (NeoScience, Suwon, Korea) at 730 nm under conditions of an exposure of 2000 ms and a gain of 5.

[2] = system: human-derived MSCs (hMSCs); assay: Stem cell migration evaluation ex vivo (24-well Transwell plate, PKH 26-labeled hMSCs); format: cell-based; conditions: 1 μg/mL in DMEM + 1% FBS in bottom well, FIG. 2; for stem cell migration compared with the control: hMSCs in upper chamber
Protocol: In the present invention, to compare the stem cell recruiting activities of SP and the SP1 of the present invention, stem cell migration was evaluated in an ex vivo environment.
First, human-derived MSCs (hMSCs) were labeled with a PKH 26 dye (Sigma, USA), and 5×10^4 cells were put into an upper chamber (8.0 μm pore size) of a 24-well Transwell plate (SPL, Korea). After the hMSCs were cultured in the upper chamber for 48 hours using a serum-free DMEM (Gibco, USA), a medium prepared under the following conditions in Table 2 was added into a bottom well, and then the medium was replaced with a fresh one every third day, followed by observing hMSCs in the bottom well using a fluorescence microscope.

Row | Sequence | stem cell recruiting activity maintenance time ([1]; Cx-HA hydrogel 1 μg/mL peptide, nude mouse, FIG. 6, compared with conventional SP) | stem cell recruiting activity, comparing FIGS. 4 (SP) and 5 (SP1) ([1]; Cx-HA hydrogel 1 μg/mL peptide, nude mouse, NIR imaging over time, compared with SP) | amount of stem cells moved to the injected site, quantified (FIG. 6): stem cell recruiting activity ([1]; Cx-HA hydrogel 1 μg/mL peptide, nude mouse, compared with conventional SP) | fluorescence (recruited hMSC) at injected site [1] | number of moved stem cells compared with the SP-treated group [2] | stem cell migration compared with the control [2]
1 | RISPQQRDALA (SP1) | longer | higher stem cell recruiting activity | higher stem cell recruiting activity | fluorescence was observed | high | stem cells moved
2 | RPKPQQFFGLM (RPKPQQFFGLM-NH2) [SP, neuropeptide of 11 amino acids (Arg-Pro-Lys-Pro-Gln-Gln-Phe-Phe-Gly-Leu-Met-NH2), endogenous NKR1 ligand, reference compound] | – | – | – | fluorescence was observed | – | stem cells moved

From US11186612B2, “Substance P analog having progenitor cell or stem cell recruiting activity and method for progenitor cell or stem cell recruiting using the same” (AJOU UNIVERSITY INDUSTRY-ACADEMIC COOPERATION FOUNDATION, priority 2019, dated 2021)
